We go through 2 compounds from patent US20170266157A1, “METHODS FOR WOUND HEALING AND SCAR PREVENTION” (priority 2016, published 2017).

For assay [1], the system named is resection site of a periauricular basal cell carcinoma. As to the kind of experiment: Healing of full-thickness resection site of periauricular basal cell carcinoma, topical treatment. The format is in vivo, person. The source says: A person underwent a full-thickness resection of a basal cell carcinoma on an outpatient basis. See FIG. 1, panel a. showing wound during operation and panel b. showing wound immediately post operation. RT175 formulated in an Amantle™ cream base was applied immediately post-operatively, and then daily thereafter for 12 days. […] An archival photo of a scar biopsy is included for comparison.

A further assay deals with T1, FKBP52 (Homo sapiens, UniProt Q02790).
T1 construct: endogenous in cells
T1 sequence (Q02790 1-459): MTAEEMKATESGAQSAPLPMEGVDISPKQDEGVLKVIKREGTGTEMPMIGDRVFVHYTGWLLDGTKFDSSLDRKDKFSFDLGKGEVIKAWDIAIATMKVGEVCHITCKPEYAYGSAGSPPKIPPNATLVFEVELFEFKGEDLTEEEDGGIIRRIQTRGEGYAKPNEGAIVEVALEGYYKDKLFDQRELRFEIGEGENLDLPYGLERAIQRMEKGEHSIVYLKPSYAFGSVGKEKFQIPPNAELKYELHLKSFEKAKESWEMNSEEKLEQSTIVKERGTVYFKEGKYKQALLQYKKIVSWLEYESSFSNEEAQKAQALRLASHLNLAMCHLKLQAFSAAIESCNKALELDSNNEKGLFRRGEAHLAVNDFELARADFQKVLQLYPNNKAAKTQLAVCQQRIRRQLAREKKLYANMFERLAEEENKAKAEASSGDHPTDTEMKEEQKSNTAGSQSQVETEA
The conditions noted are these: treatment of fibroblasts for 2 hours; cited from earlier work.

The subject of assay [2] is ED&C sites of the supradeltoid regions of the upper arm. As to the kind of experiment: Healing after electrodissection and curettage (ED&C) of the upper arm, topical treatment. Type of assay: in vivo, person. The protocol: The supradeltoid regions of the left and right upper arm were treated by electrodissection and curettage (“ED&C”) for treatment of basal cell […]. Beginning on the day of surgery, and daily thereafter the sites were treated with RT175 in an Amantle™ cream base, or with the Amantle™ cream base alone. […] See FIG. 2, Day 20, bottom panel. In contrast, 68 days after the procedure the vehicle treated site was still not fully closed. Six-months following the procedure, the RT175-treated site was scar-free, see FIG. 3, panel a., while the vehicle-treated site has a pronounced, hypopigmented stellate shaped scar, see FIG. 3, panel b.

For assay [3], the target named is T2, FK506 binding protein 4 (FKBP52) (Homo sapiens, UniProt Q02790).
T2 sequence (Q02790 1-459): T1 sequence (Q02790 1-459)
The conditions noted are these: cited from earlier work.

The test system of assay [4] is stem cell markers Oct-4 and Sox-2. The assay can be described thus: Stem cell marker immunohistology of treated 5 mm dermal biopsy punch sites. The conditions noted are these: RT175 in Amantle cream base daily for 30 days, re-biopsy, 10 micron sections. Type of assay: in vivo, person. The protocol:
A person underwent bilateral 5 millimeter (“mm”) dermal biopsy punches in the forearm, 5 centimeter (“cm”) distal to the antecubital space. Treatment with RT175 in an Amantle™ cream base, or with the Amantle™ cream base alone was begun immediately upon hemostasis. The skin was treated daily for 30 days, whereupon the sites were re-biopsied and the tissue processed for immunohistology. 10 micron thick sections were stained for the expression of the stem cell markers Oct-4, see FIG. 4, panels a. and c., or Sox-2, see FIG. 4, panels b. and d. […] Not to be held to a particular theory, the presence of stem cells markers in RT175 treated wound sites indicates active stem cells. The presence of these stem cells in the wound site causes rapid and proper wound healing without the formation of scar tissue. In turn, the absence of stem cells from wound sites allows the formation of scar tissue.

Assay [5] relates to ear punch-hole wound (mouse pinna). As to the kind of experiment: Punch-hole biopsy of the ear of mice, topical treatment. The conditions noted are these: topical once daily, within 21 days of punch-hole biopsy; 2.4 μg RT1061, 80 μg FK506. Type of assay: in vivo, ICR breeder mice. The protocol: Retired ICR breeder mice of both sexes with weight between 45 and 50 grams were subject to single bilateral punch-hole biopsies. The animals were then randomly assigned to one of three groups to receive either 2.4 μg of RT1061, 80 μg FK506 or a vehicle control. RT1061, FK506 or vehicle control was applied topically to both the ventral and dorsal surface of the ear, once each day including immediately after biopsy.
All wounds were photographed using a Nikon CoolPix 990 digital camera. Each image included a metric ruler that had been approximated to the wound. The images of the wounds were opened in Adobe Photoshop, and using the “measurement tool”, the length, in pixels, of 3 cm along the ruler's straight edge was determined. That number was used to calculate a conversion factor that was then used to normalize each photograph. The conversion factor was calculated as 100/length. To normalize the area of the lesion in a photograph, the […] using the “magic wand” tool, and the number of voxels were multiplied by the conversion factor, thus generating the equation: area=volume (voxels)*conversion factor. The area at t=0 was defined as 100%. […] The mean area of the initial hole was calculated as average […] of the punches at t=0 (determined by using an outline of the hole measured against the ruler, using Adobe Photoshop) times π. […]

The subject of assay [6] is dermabrasion lesions of dorsal skin. The assay can be described thus: Dermabrasion lesions of dorsal skin of mice, topical treatment. Type of assay: in vivo, ICR breeder mice. The conditions noted are these: 5 μL of 100 nanomolar RT1061 topical once daily, 10 days after rasping. The protocol:
Retired ICR breeder mice of both sexes with weight between 45 and 50 grams were shaved and rasped to induce dermabrasion lesions. The animals were then randomly assigned (5 per treatment arm) to one of two groups to receive either 5 μL of 100 nanomolar RT1061 or a vehicle control. RT1061 or vehicle control was applied topically to the lesion site once each day including immediately after dermabrasion.

`CCC(C)(C)C(=O)C(=O)N1CCC[C@H]1C(=O)O` [RT175]: the “scar observed, skin appearance” value in assay [1] (12th post-operative day, RT175 in Amantle cream base daily) is “little to no scar”. Further, the “wound closed and largely healed by” value in assay [1] (RT175 in Amantle cream base, applied immediately post-operatively then daily for 12 days) is at most 7 post-operative day. Moreover, the “scar tissue by biopsy” value in assay [1] (biopsy 6 months later) is given as “absence of scar tissue”. Also, the “translocation of FKBP52” value at FKBP52 is reported as “translocation of FKBP52 to the nucleus”. Also, the “treated site fully closed by” value in assay [2] (RT175 in Amantle cream base daily, vehicle site still not fully closed at 68 days) is at most 20 post-operative day. Also, the “scar at treated site” value in assay [2] (six months following the procedure) is “scar-free”. Further, the “binding affinity to FKBP52” value in assay [3] is reported as “high affinity”. Besides, the “expression of stem cell markers Oct-4 and Sox-2 in treated tissue” value in assay [4] is given as “expressed both stem cell markers”.

Take `CCC(C)(C)C(=O)C(=O)N1CCCC1Cc1ccccc1` (centres unmarked) [RT1061, 1-(2-benzylpyrrolidin-1-yl)-3,3-dimethylpentane-1,2-dione]: the “regeneration of mouse pinna tissue (ear-hole closure)” value in assay [5] is given as “almost complete regeneration of the mouse pinna”. Also, in assay [6], the hair growth entry is recorded as “rapid hair growth” and the “regeneration of rasped skin” value is reported as “rapid regeneration of rasped skin”.
